Tests used:
[1] = Solid stability test of the crystal form A of the compound of formula (II-1) (XRPD); type: physicochemical
Experimental: About 10 mg of the crystal form was accurately weighed and added to a dry and clean glass flask, spread into a thin layer, covered with aluminum foil, pierced small holes and placed under the influence factor test conditions and under accelerated conditions. Samples placed under illumination (visible light 1200000 Lux, UV 200 W) conditions were placed in clear glass flasks, fully exposed, and samples used for XRPD detection were placed separately.
After the samples were removed at the time point, the cover was covered, and the flask was sealed using sealing film, and stored in −20° C. refrigerator. When preparing the sample, the sample was removed from the refrigerator, restored to room temperature; 10 mL of 80% ACN was added, and the sample was dissolved by sonication for 2 min to obtain a solution with a concentration of about 1 mg/mL, then the liquid phase was used for injection analysis, and the detection results were compared with the initial detection results on day 0.
Preparation of standard solution on day 0: About 10 mg of the crystal was weighed and added to a 10 mL volumetric flask, dissolved with 80% ACN and the volume was fixed to the scale.

[2] = Accelerated stability test of the crystal form A of the compound of formula (II-1); type: physicochemical; conditions: long-term placement conditions
[3] = Pharmacokinetic study of the crystal form A of the compound of formula (II-1) in SD rats; type: in vivo
Experimental: Experimental Purpose: To Study the Pharmacokinetics of the Compounds in SD Rats
Experimental Materials: SD Rats (12, Half Male and Half Female)
Experimental procedure: The pharmacokinetic characteristics of the compounds were tested in rodents after intravenous (IV) and oral (PO) administration using standard protocols. The candidate compounds were prepared into 0.5 mg/mL and 1 mg/mL clarified solutions and administrated to rats for single intravenous injection and oral administration. The solvent for both intravenous and oral administration was 5% DMSO/95% (10% hydroxypropyl β-cyclodextrin) aqueous solution. 12 SD rats were used in this project, and 6 rats (half male and half female) were administered intravenously at a dose of 1 mg/kg and plasma samples were collected at 0.0833, 0.25, 0.5, 1, 2, 4, 8, 12, and 24 h after administration, and the other 6 rats (half male and half female) were administered orally by gavage at a dose of 10 mg/kg and plasma samples were collected at 0.25, 0.5, 1, 2, 4, 8, 12 and 24 h after administration. 15 μL of plasma sample was added to a 96-well plate, and 300 μL of internal standard working solution (MeOH (containing 1.00 ng/mL Verapamil and 0.1% formic acid (FA)): ACN (v:v, 50:50) solution) was added to precipitate the proteins, the 96-well plate was shaken for 15 min, followed by centrifugation at 4° C., 3220 g for 15 min. 150 μL of supernatant was placed in a new 96-well plate with 150 μL of aqueous solution containing 0.1% formic acid (FA) and shaken for 10 min, and then centrifuged at 4° C., 3220 g for 5 min. The samples were directly injected, and the plasma drug concentration was quantitatively analyzed by LC-MS/MS analysis method, and pharmacokinetic parameters were calculated, such as peak concentration (Cmax), clearance rate (CL), half-life (T1/2), […] (Vdss), area under the drug-time curve (AUC0-last), bioavailability (F), etc.

[4] = Influence factor stability test of the crystal form A of the compound of formula (II-1); type: physicochemical
Experimental: High humidity (25° C./92.5% RH): 1 g of each sample was weighed and the sample was placed in an open flat weighing bottle (70×35 mm) under 25° C./92.5% RH conditions, and then placed in a comprehensive drug stability chamber (25° C./92.5% RH) for investigation.
High temperature (60° C.): 1 g of each sample was weighed and the sample was placed in an open flat weighing bottle under 60° C. conditions, and then placed in a blast drying oven (60° C.) for investigation.
Illumination: 1 g of each sample was weighed. The samples with illumination condition were placed in a clean watch glass, spread into a thin layer and put into 5000±500 lux (visible light) with 90 μw/cm^2 (UV) conditions for illumination.

Crystal form ([1]; 0 day): Crystal form A | solid stability (conclusion in words) ([1]; 92.5% high humidity conditions): crystal transformation will occur | Crystal form ([1]; High humidity (relative humidity 75%, open), 5 days): Crystal form A | Crystal form ([1]; High humidity (relative humidity 75%, open), 10 days): Crystal form A | Crystal form ([1]; High humidity (relative humidity 92.5%, open), 5 days): Crystal form C | Crystal form ([1]; High humidity (relative humidity 92.5%, open), 10 days): Crystal form C | Crystal form ([1]; High temperature (60° C., open), 5 days): Crystal form A | Crystal form ([1]; High temperature (60° C., open), 10 days): Crystal form A | Crystal form ([1]; High temperature and humidity (40° C. relative humidity 75%, open), 5 days): Crystal form A | Crystal form ([1]; High temperature and humidity (40° C. relative humidity 75%, open), 10 days): Crystal form A | Crystal form ([1]; High temperature and humidity (60° C. relative humidity 75%, open), 5 days): Crystal form A | Crystal form ([1]; High temperature and humidity (60° C. relative humidity 75%, open), 10 days): Crystal form A | Crystal form ([1]; Illumination (total illuminance = 1.2 × 10^6 Lux·hr/near UV = 200 w·hr/m^2, open), 5 days): Crystal form A | Crystal form ([1]; Illumination (total illuminance = 1.2 × 10^6 Lux·hr/near UV = 200 w·hr/m^2, open), 10 days): Crystal form A | solid stability (conclusion in words) ([1]; high temperature, 75% humidity and strong illumination conditions): good stability | stability in accelerated test (conclusion in words) [2]: stable | Clearance rate CL ([3]; SD rats, IV 1 mg/kg): 22.4 mL/min/kg | Half-life T1/2 (IV) ([3]; SD rats, IV 1 mg/kg): 4.93 h | Tissue distribution Vdss ([3]; SD rats, IV 1 mg/kg): 7.39 L/kg | Bioavailability F ([3]; SD rats, IV 1 mg/kg, PO 10 mg/kg): 17.8% | Area under drug-time curve AUC0-last PO ([3]; SD rats, PO 10 mg/kg): 3.69 µM·h | Cmax ([3]; SD rats, half male and half female, PO 10 mg/kg, read-out: Peak concentration Cmax): 519 nM | pharmacokinetic properties (conclusion in words) ([3]; rats): good pharmacokinetic properties | Content ([4]; 0 day): 99.5% | Impurity at relative retention time (RRT) 0.66 ([4]; 0 day): 0.06% | Impurity at relative retention time (RRT) 0.85 ([4]; 0 day): 0.34% | Impurity at relative retention time (RRT) 0.90 ([4]; 0 day): 0.02% | Impurity at relative retention time (RRT) 1.64 ([4]; 0 day): 0.06% | Total impurities ([4]; 0 day): 0.46% | Content ([4]; 25° C./92.5% RH, 1 month): 98.9% | Impurity at relative retention time (RRT) 0.66 ([4]; 25° C./92.5% RH, 1 month): 0.06% | Impurity at relative retention time (RRT) 0.85 ([4]; 25° C./92.5% RH, 1 month): 0.32% | Impurity at relative retention time (RRT) 0.90 ([4]; 25° C./92.5% RH, 1 month): 0.03% | Impurity at relative retention time (RRT) 1.64 ([4]; 25° C./92.5% RH, 1 month): 0.05% | Total impurities ([4]; 25° C./92.5% RH, 1 month): 0.43% | Content ([4]; 60° C., 1 month): 99.6% | Impurity at relative retention time (RRT) 0.66 ([4]; 60° C., 1 month): 0.06% | Impurity at relative retention time (RRT) 0.85 ([4]; 60° C., 1 month): 0.31% | Impurity at relative retention time (RRT) 0.90 ([4]; 60° C., 1 month): 0.06% | Impurity at relative retention time (RRT) 1.64 ([4]; 60° C., 1 month): 0.04% | Total impurities ([4]; 60° C., 1 month): 0.43% | Content ([4]; Illumination, 10 days): 97.6% | Impurity at relative retention time (RRT) 0.66 ([4]; Illumination, 10 days): 0.09% | Impurity at relative retention time (RRT) 0.85 ([4]; Illumination, 10 days): 0.31% | Impurity at relative retention time (RRT) 0.90 ([4]; Illumination, 10 days): 0.02% | Impurity at relative retention time (RRT) 1.64 ([4]; Illumination, 10 days): 0.05% | Total impurities ([4]; Illumination, 10 days): 0.51% | stability in influence factor test (conclusion in words) ([4]; illumination, high temperature and high humidity): stable
Structure (SMILES): COc1cccc(C(CN)NC(=O)c2cc(-c3ccc4[nH]nc(C)c4c3)ccn2)c1.Cl.Cl (stereo not drawn)
